Test results taken from patent US20060041019A1, “Inhibitor of anticancer drug side effect” (priority 2002, published 2006).

Columns and labels:
Type in all cases: in vivo
[1] = test system: Mouse models of spontaneous cancer (CBA/J); assay: Hair loss and whisker loss as side effect of adriamycin, Test Example 4; conditions: ADM 0.2 mg/kg i.p. in courses; CPL 0.01% in feed; n = 10 (ADM), 9 (ADM and CPL), 10 (CPL)
Excerpt: Based on the results attained in Test Examples 2 and 3, hair loss and whisker loss were observed under overcrowded conditions or in the presence of a dominant male. […] Accordingly, only the cage in which the dominant male was not present among the group that had been raised under normal conditions was selected, and the effects of CPL for alleviating side effects of an antitumor agent were examined.
Thereafter, they were divided into: the group to which an antitumor agent (adriamycin, ADM) had been administered; the group to which CPL-containing feeds had been administered; and the group to which ADM had been administered in combination with CPL, and these groups of mice were raised. The daily dosage of ADM was 0.2 mg/kg per mouse, and administration was made intraperitoneally once a day for 3 consecutive days, followed by drug withdrawal for 11 days. This procedure was designated as constituting a single course and then continued. CPL was mixed with feeds (CE-2) in amounts of 0.01% thereof.

[2] = test system: Male mouse models (CBA/J) of spontaneous alveolar epithelial hyperplasia; assay: Hair loss as side effect of adriamycin, Test Example 1; conditions: ADM 0.1 mg/kg i.p., eight courses
Experimental: (§1) Male mouse models (CBA/J) of spontaneous alveolar epithelial hyperplasia were employed as test animals. These mice develop alveolar epithelial hyperplasia 12 to 15 weeks after birth. Accordingly, they were raised with normal feeds until 19 weeks after birth. […] CPL was mixed with powder feeds (CE-2). The daily dosage of adriamycin (ADM) was 0.1 mg/kg per mouse, and administration was made intraperitoneally once a day for three consecutive days, followed by drug withdrawal for 11 days. This procedure was designated as constituting a single course, and eight courses thereof were conducted.
(§2) At the time of ADM administration, the body weights of mice were measured and their general conditions were observed. In particular, the occurrence of hair loss was carefully observed. The mice were subjected to autopsy 36 weeks or 37 weeks after birth (with an administration duration of 17 weeks or 18 weeks), and samples were recovered. Tissue blocks were obtained from 3 sites each of the extirpated right and left lungs (6 sites in total), the recovered tissue fragments were fixed, fragments embedded in hydrophilic methacrylate resins were subjected to H-E staining, and the ranges of alveolar epithelial hyperplasia were compared.

[3] = test system: alveolar epithelial hyperplasia in male mouse models (CBA/J); assay: Inhibition of alveolar epithelial hyperplasia, Test Example 1
Experimental: as §1
as §2, with “compared. […]” for “compared.”

[4] = CPL 0.01% in feed, group sizes n = 7 (CPL), 8 (CPL and ADM), 10 (ADM)

Structure (SMILES): COc1cccc2c1C(=O)c1c(O)c3c(c(O)c1C2=O)C[C@@](O)(C(=O)CO)C[C@@H]3O[C@H]1C[C@H](N)[C@H](O)[C@H](C)O1 [ADM, adriamycin]
- Hair loss and whisker loss (number of individuals) [1]: 4
- Individuals with hair loss around the eyeballs and the skin of the upper lips ([2]; 9 out of 10 cases): 90%
- Number of individuals undergoing hair loss around the eyeballs [2, 4]: 9
- Number of individuals undergoing hair loss at the upper lip [2, 4]: 9
- Individuals in which sections with rates of hyperplasia development of 50% or more were observed ([3]; FIG. 9, as in the group that did not experience administration): all individuals
- Sections with rates of hyperplasia development of less than 10%, share of the whole ([3]; lung tissue sections, 6 sites per individual, autopsy 36 or 37 weeks after birth, FIG. 8): 8.3%
